Data published in patent US5569670A, “Combination medications containing alpha-lipoic acid and related” (Asta Medica Aktiengesellschaft, priority 1992, dated 1996).
Like-named read-outs stand apart in the source and are kept apart here.

Experiments:
[1] = in vivo; details: mouse, in vivo
[2] = in vivo; details: rat, in vivo
[3] = cited from earlier work
[4] = cited from earlier work; remark: listed apart in the source
[5] = test system: mouse; test: in vivo
[6] = test system: rat; test: in vivo
[7] = po, oral administration, LITCHFIELD and WILCOXON method, read-out: acute toxicity LD50

Work on `O=C(O)CCCCC1CCSS1` (racemic) [alpha-lipoic acid (racemate), 1,2-dithia-cyclopentane-3-valeric acid] yielded an LD50 ([1]; po, female, read-out: LD50) of 460 mg/kg, an LD50 ([1]; po, male, read-out: LD50) of 502 mg/kg and an LD50 ([2]; po, female) of 1210 mg/kg. For the same compound, the LD50 ([2]; po, male) was 1190 mg/kg.

For `O=C(O)CCCC[C@@H]1CCSS1` [R-alpha-lipoic acid], the LD50 [1, 7] is listed as greater than 1000 mg/kg, the “predominant effect of the enantiomer (anti-inflammatory)” value ([3]; in vivo) is listed as “predominantly anti-inflammatory effect” and the “anti-inflammatory effect relative to the racemate” value ([3]; x times stronger than the racemate) is listed as 10 times.

In the case of `O=C(O)CCCC[C@H]1CCSS1` [S-alpha-lipoic acid], the LD50 [1, 7] is listed as greater than 1000 mg/kg, the “predominant effect of the enantiomer (antinociceptive)” value ([4]; in vivo) is listed as “predominantly antinociceptive effect” and the “antinociceptive (analgesic) effect relative to the racemate” value ([4]; up to x times stronger than the racemate) is listed as “up to 6 times”.

`O=C1O[C@H]([C@@H](O)CO)C(O)=C1O` [Vitamin C, ascorbic acid] gave an LD50 ([1]; iv, read-out: LD50) of 1060 mg/kg, an LD50 ([1]; po, read-out: LD50) of 8020 mg/kg and an LD50 ([2]; iv) of 1000 mg/kg. The LD50 ([2]; po) was greater than 5000 mg/kg.

For Vitamin B6, the LD50 ([5]; i.v.) was 1020 mg/kg, the LD50 ([5]; p.o.) was 8400 mg/kg and the LD50 ([6]; i.v.) was 1450 mg/kg. The LD50 ([6]; p.o.) was 5500 to 15900 mg/kg.
